Assay results published in patent US20260224602A1, “METHODS AND PHARMACEUTICAL COMPOSITIONS FOR TREATING DEMENTIA” (Neurxstem, priority 2023, published 2026).
Counter-ions that a name gives are not always drawn. Like-named read-outs stand apart in the source and are kept apart here.

What was measured:
[1] = tested on: AD-NNOP-SPOR neural organoids; assay: CGS-21680 effect on gene expression in AD-NNOP-SPOR neural organoids (Ampliseq transcriptomics); format: cell-based, human
Description: (§1) Neural Organoids derived from induced pluripotent stem cells derived from adult skin cells of AD, ADRD or MED patients were grown in vitro for 4 weeks as previous described in U.S. Pat. No. 11,435,890, incorporated by reference in its entirety herein. Transcriptomic data from these neural organoids were obtained. Differences in expression of 20,814 genes expressed in the human genome were determined between these neural organoids and those from neural organoids from a normal individual human (an individual not having/diagnosed with AD, ADRD, or MED). Detailed data analysis using Gene Card and Pubmed data bases were performed.
(§2) Human induced pluripotent stem cell-derived neural organoids were generated according to the following protocol, as set forth in U.S. Pat. No. 11,435,890, incorporated by reference in its entirety herein. Briefly, irradiated murine embryonic fibroblasts (MEF) were plated on a gelatin coated substrate in MEF media (Dulbecco's Modified Eagle Medium (DMEM) supplemented with 10% Fetal Bovine Serum, 100 units/ml penicillin, 100 microgram/ml streptomycin, and 0.25 microgram/ml Fungizone) at a density of 2×10^5 cells per well. The seeded plate was incubated at 37° C. overnight.
In Table 1, the effect of A2A receptor agonist to reverse the aberrant expression of the biomarkers in AD disease was assessed. […] Log2 fold change with a positive value indicates a […] in expression of an AD-NNOP gene when compared to Normal-NNOP and a negative number indicates an increase in gene expression.

[2] = cited from earlier work
[3] = tested on: AD-NNOP-APP neural organoids; assay: PF-3845 effect on gene expression in AD-NNOP-APP neural organoids (Ampliseq transcriptomics); format: cell-based, human
Description: as §1, with “performed. […] These genes comprise a suite of biomarkers for Alzheimer's disease.” for “performed.”
as §2
It is known that FAAH inhibitor PF-3845 will raise endogenous levels of endocannabinoid anandamide receptor agonist anandamide. Consequently, PF-3845 treatment can increase endocannabinoid anandamide receptor activity despite dementia-associated downregulation. […] AD-NNOP-APP neural organoids were incubated with vehicle (0.1% DMSO; control) or PF-3845 dissolved in DMSO at 10 µM for 4 days and harvested for RNA extraction and gene expression analysis by Ampliseq™ (Thermofisher). Log2 fold change with a positive value indicates a […] in expression of an AD-NNOP gene when compared to Normal-NNOP and with a negative number an increase in gene expression. […] The expression of these genes were known to be increased in AD-NNOP-APP compared to normal (data not shown). Thus, PF-3845 or FAAH inhibitor was effective in reverting the biomarkers of AD to normalcy.

adenosine A2A receptor = settings: Zochi et al., 1996, cited from earlier work
[4] = AD-NNOP-SPOR, CGS-21680 1 μM 4 days vs vehicle
[5] = AD-NNOP-APP >12 weeks in culture, PF-3845 10 µM 4 days vs vehicle (0.1% DMSO), positive = decrease in expression

Structure (SMILES): CCNC(=O)[C@H]1O[C@@H](n2cnc3c(N)nc(NCCc4ccc(CCC(=O)O)cc4)nc32)[C@H](O)[C@@H]1O [CGS-21680, 2-p-(2-Carboxyethyl) phenethylamino-5′-N-ethylcarboxamidoadenosine hydrochloride hydrate]
- effect on TBX3 expression ([1]; AD-NNOP SPOR, compared to control treatment): decreased TBX3 expression
- effect on expression of abnormal AD genes [1, 4]: invert the expression of the abnormal genes in AD and revert them back to normalcy
- number of differentially expressed genes vs control group [1, 4]: 2023 genes
- solubility in 45% (w/v) aq 2-hydroxypropyl-β-cyclodextrin ([2]; 45% (w/v) aq 2-hydroxypropyl-β-cyclodextrin): ≤ 20 mg/mL
- solubility in DMSO [2]: up to 3.4 mg/mL

Structure (SMILES): O=C(Nc1cccnc1)N1CCC(Cc2cccc(Oc3ccc(C(F)(F)F)cn3)c2)CC1 [PF-3845]
- effect on expression of measured AD biomarker genes ([3]; AD-NNOP APP, PF-3845 compared to control treatment): expression of the measured genes were decreased
- ADM log2 Fold Change [3, 5]: 2.14
- BGN log2 Fold Change [3, 5]: 2.50
- CD36 log2 Fold Change [3, 5]: 2.86
- MAP3K19 log2 Fold Change [3, 5]: 2.56
- SLC16A3 log2 Fold Change [3, 5]: 2.05
- number of differentially expressed genes vs control group ([3]; AD-NNOP-APP, PF-3845 10 µM 4 days vs vehicle): 2111 genes

Structure (SMILES): CCNC(=O)[C@H]1O[C@@H](n2cnc3c(N)nc(C#CC[C@H]4CC[C@H](C(=O)OC)CC4)nc32)[C@H](O)[C@@H]1O [apadenoson, methyl (1R,4r)-4-(3-(6-amino-9-((2R,3R,4S,5S)-5-(ethylcarbamoyl)-3,4-dihydroxytetrahydrofuran-2-yl)-9H-purin-2-yl)prop-2-yn-1-yl)cyclohexane-1-carboxylate]
- solubility in DMSO ([2]; MedKoo Biosciences): Soluble in DMSO
